Laboratory results as given in patent US20250339409A1, “USES OF PAN BET INHIBITORS” (VYNE THERAPEUTICS INC., priority 2021, published 2025).

Experiments:
[1] = test system: melanin in basal layers of RHE; assay: RHE vitiligo model: melanin content and localization by Fontana Masson staining; assay type: cell-based, human
Description: Melanin deposition on 6 μm paraffin sections of each epidermis (n=3) are highlighted through staining with Fontana Masson reagents (VWR—VWRK641295, VWRK641311; Klinipath—641215). Slides are mounted with specific medium and examined with a Nikon Eclipse (Ni-E) photomicroscope coupled to a numerical camera (DS-Ri2)
For the melanin quantification, three images of each epidermis are taken and analysed using the NIS-Element AR software (Nikon). For the quantification of melanin, a region of interest (ROI) is first defined and measured in the epidermis. This region includes only the basal layers. Then, two measures are taken by the software in this ROI. The first one represents the labelled surface on the ROI, and thus the area occupied by the melanin in the ROI. The second one corresponds to the global intensity of the staining in the ROI, reflecting a lighter or darker melanin. The relative quantification of melanin in the ROI is then performed by multiplying these two measures. To normalize the results to a given surface, this value was then divided by the surface of the ROI.
Formulations containing four doses of BETi1 the BETi1 vehicle (placebo), were evaluated in RHE TNF-α/IFN-γ vitiligo model as described Experimental section Method F and representative images of […] epidermis sections are shown in FIG. 6A-G. The images according to this method are consistent with the images with H/E stained epidermis sections and shown in FIG. 4A-H.
Results of the quantification of melanin in basal layers of epidermis stimulated or not with the cytokine cocktail to induce melanocytorhagy and treated with the test items are shown in FIG. 6H. The results are expressed with normalization to the surface of region of interest (ROI) corresponding to the 2-3 basal layers of the RHEs. […] As for TRP-1 staining, the effects of the ruxolitinib cream at 1% on melanin content could not be assessed given that the sections have detached from the glass slides during the staining process (probably without being bound by any theory may be due to the bad structure of the epidermis).

right knee joint = assay: Toxicity in dogs after intra-articular injection: mortality, pathology, knee joint histopathology (Mankin score); assay type: in vivo; details: dog
Description: The purpose of this study was to determine the maximum tolerated dose and potential toxicity of BETi1 when administered by intra-articular injection to Beagle dogs and to determine local and systemic toxicokinetic characteristics associated with treatment of Beagle dogs with BETi1 formulations.
16 Beagle dogs (8 males, 8 females) were assigned to four treatment groups to determine toxicity of BETi1 formulations following intra-articular injection.
The experimental groups are presented below: • Group 1: Control; 0 mg of BETi1/animal dose • Group 2: Low Dose; 7.5 mg of BETi1/animal dose • Group 3: Mid Dose; 75 mg of BETi1/animal dose • Group 4: High Dose; 150 mg of BETi1/animal dose […]
Several features were measured in treated dogs, including viability, clinical observation, body weight, food consumption, clinical pathology (hematology, coagulation, serum chemistry, urinalysis), toxicokinetics, and pathology.
For all animals from the study, representative samples of organs and all gross lesions and masses from all groups were removed from fixative, trimmed, processed, embedded in paraffin, sectioned, stained with hematoxylin and eosin, and examined microscopically. […] A modified Semi-Quantitative Mankin scoring system was used to in evaluation of right knee joint histopathology, as shown in Table 48 below: […]

SMILES: Cn1cc(-c2cccc(O)c2Oc2ccccc2)c2cc[nH]c2c1=O [BETi1]
- melanin retained relative to unstimulated control ([1]; basal layers of RHE): approximately 75%
- residual melanin levels, % of stimulated/untreated control ([1]; basal layers of RHE): about 367%
- melanin content in the basal layers ([1]; stimulated RHE, vs vehicle): significantly increase the melanin content in the basal layers
- tolerability, synovium findings (right knee joint; intra-articular 7.5, 75, 150 mg, 28 days): overall well-tolerated
- total Mankin score, right knee joint (right knee joint; intra-articular, 14-points scale): total Mankin score of zero except for one animal at 75 mg dose
